These results are taken from PMC4351868 (Cancer chemotherapy and pharmacology, 2012).

For data set [1] the following is noted: temsirolimus combined with sorafenib; 9 of 19 patients; cited from earlier work.
For data set [2], the system named is recurrent glioblastoma. As to conditions: glioblastoma patients; erlotinib in combination with temsirolimus; cited from earlier work.
Data set [3] is described as follows: Safety assessment: adverse events. In kind it is in vivo.
Data set [4] has as its system recurrent glioblastoma. The data set is described as follows: Efficacy: tumor response. It is filed as in vivo, human. Particulars: for Median PFS: dose expansion phase.
The format of data set [5] is in vivo, human. As to conditions: for concentration at 12 h: serum, Serum concentration; for concentration at 12 h / Serum concentration / Tumor concentration: approximately 12 hours after 8th AEE788 (250 mg) dose.
The conditions of data set [6]: human, in vivo.
Data set [7] has as its system recurrent glioblastoma. The data set is described as follows: FLT-PET and DCE-/DSC-/DWI-MRI pharmacodynamic imaging. It is filed as in vivo, human.
Data set [8] can be described thus: Serum pharmacokinetics of AEE788 and its metabolite AQM674.

Where two headings read alike, the source gives them in different places.

With `CO[C@H]1C[C@@H]2CC[C@@H](C)[C@@](O)(O2)C(=O)C(=O)N2CCCC[C@H]2C(=O)O[C@H]([C@H](C)C[C@@H]2CC[C@@H](OC(=O)C(C)(CO)CO)[C@H](OC)C2)CC(=O)[C@H](C)/C=C(\C)[C@@H](O)[C@@H](OC)C(=O)[C@H](C)C[C@H](C)/C=C/C=C/C=C/1C` [temsirolimus], the “grade 3 thrombocytopenia, patients” value in data set [1] is on record as 47%.
Regarding `C#Cc1cccc(Nc2ncnc3cc(OCCOC)c(OCCOC)cc23)c1` [erlotinib], in the data set with recurrent glioblastoma [2], the “6-month PFS” value was 12.5% and the PR entry was “none”.
Regarding `CCN1CCN(Cc2ccc(-c3cc4c(N[C@H](C)c5ccccc5)ncnc4[nH]3)cc2)CC1` [AEE788], in data set [3] (Group A), the “deaths within 28 days of last dose of AEE788” value came to 4 deaths. The “Treatment discontinuation due to death” value in data set [3] (Group A, of 26 patients) is given as 2 (7.7) n (%); in data set [3] (Group B, of 14 patients), 0 (0) n (%). In addition, in data set [3] (all disease progression), the “deaths during AEE788 therapy” value is recorded as “Three”. Moreover, the “hepatotoxicity (at least grade 2 AST or ALT elevations), patients” value in data set [3] (human, in vivo) turned out to be 27%. For the same molecule, the “patients who discontinued because of SAEs” value in data set [3] (human, in vivo) is 17%. Further, the “patients who discontinued treatment because of AEs” value in data set [3] (human, in vivo) is reported as 28%. Also, the “patients with grade 3/4 AST or ALT elevations” value in data set [3] (human, in vivo) is on record as 22%. Further, the “patients reporting at least one AE” value in data set [3] (in vivo) is “All patients”. The “relationship between higher AEE788 dose levels and AST or ALT abnormalities” value in data set [3] (in vivo) is on record as “No relationship”. Also, the “overall best response: SD for > 3 cycles, patients” value in the data set with recurrent glioblastoma [4] (6 of 36 patients) is 17%. Further, the “Treatment discontinuation due to progressive disease” value with recurrent glioblastoma [4] (Group A, of 26 patients) is 18 (69.2) n (%); with recurrent glioblastoma [4] (Group B, of 14 patients) it was 11 (78.6) n (%). The “complete or partial response” value in the data set on recurrent glioblastoma [4] (all patients) is recorded as “No CR or PR”. The “Median PFS” value in the data set on recurrent glioblastoma [4] (Group A) is 2.7 (90% CI: 1.9, 2.8) months; in the data set with recurrent glioblastoma [4] (Group B), 1.6 (90% CI: 0.2, 2.6) months. The “disease progression causing treatment discontinuation, patients” value is on record as 78.6% with recurrent glioblastoma [4] (dose-escalation EIACD group, all dose levels (11 patients)); 69.2% in the data set on recurrent glioblastoma [4] (dose-escalation non-EIACD group, all dose levels (18 patients)); 71.4% in the data set with recurrent glioblastoma [4] (dose-expansion Arm 1, all dose levels (5 patients)); 58.8% in the data set with recurrent glioblastoma [4] (dose-expansion Arm 2, all dose levels (10 patients)). The molecule also registered a Kp in data set [5] (human, glioblastoma tumor / plasma, oral, 250 mg) of 14 to 59. Also, the concentration at 12 h in data set [5] (human, oral, 250 mg, Patient 1) amounted to 57.3 ng/mL; in data set [5] (human, oral, 250 mg, Patient 2), 41.9 ng/mL; in data set [5] (human, oral, 250 mg, Patient 3) it was 141 ng/mL; in data set [5] (human, oral, 250 mg, Patient 4), 110 ng/mL. Also, in data set [6], the “PK steady state reached” value is ≤ 15 days. Further, the “accumulation after daily (q 24 h) administration versus a single dose” value in data set [6] is given as 2-8 times. Besides, in data set [6], the “effect of EIACD on overall exposure / concentrations” value is “reduced”. Also, in data set [6], the “exposure of Group B patients at 600 mg relative to Group A patients at 550 mg” value is recorded as “half”. Also, the “fold range in exposure over an 11-fold range in doses (50–550 mg)” value in data set [6] is reported as 52 fold. For the same molecule, the “mean coefficient of variation in AUC0–24” value in data set [6] was 67%. Also, the “range of coefficient of variation in AUC0–24” value in data set [6] is 47-102%. In addition, the “exposure on day 15 relative to day 1” value in data set [6] (15 day) was “approximately 4.5 fold”. For the same molecule, in the data set on recurrent glioblastoma [7] (FLT-PET in 6 patients (250, 400, 600 mg)), the “change in FLT-PET parameters” value is on record as “one patient experienced a significant decrease in PET parameters”. For the same molecule, the “pharmacodynamic effects based on FLT-PET and/or MRI analyses” value in the data set with recurrent glioblastoma [7] (any dose level) is “no significant pharmacodynamic effects”. In addition, the Tmax amounted to 5 h in data set [8] (human, serum, oral); 3 h in data set [8] (human, serum, oral, 50 mg/day); 4.3 h in data set [8] (human, serum, oral, 100 mg/day); 9 h in data set [8] (human, serum, oral, 200 mg/day); 5.9 h in data set [8] (human, serum, oral, 250 mg/day); 4.9 h in data set [8] (human, serum, oral, 300 mg/day). The Tmax in data set [8] (human, serum, oral, 400 mg/day) was determined as 6.7 h; in data set [8] (human, serum, oral, 450 mg/day), 11 h; in data set [8] (human, serum, oral, 550 mg/day), 12.5 h; in data set [8] (human, serum, oral, 600 mg/day), 3.7 h; in data set [8] (human, serum, oral, 800 mg/day) it was 3 h. Moreover, in data set [8] (human, serum, oral), the half-life was > 1440 min. Also, the AUC(0-t) was 82 ng·h/mL in data set [8] (human, serum, oral, 50 mg/day); 168 ng·h/mL in data set [8] (human, serum, oral, 100 mg/day); 189 ng·h/mL in data set [8] (human, serum, oral, 200 mg/day); 1440 ng·h/mL in data set [8] (human, serum, oral, 250 mg/day); 628 ng·h/mL in data set [8] (human, serum, oral, 300 mg/day); 1150 ng·h/mL in data set [8] (human, serum, oral, 400 mg/day). Also, the area under the curve AUC(0-t) in data set [8] (human, serum, oral, 450 mg/day) stood at 3000 ng·h/mL; in data set [8] (human, serum, oral, 550 mg/day), 4300 ng·h/mL; in data set [8] (human, serum, oral, 600 mg/day), 730 ng·h/mL; in data set [8] (human, serum, oral, 800 mg/day), 1460 ng·h/mL. Further, the Cmax was found to be 7.7 ng/mL in data set [8] (human, serum, oral, 50 mg/day); 12.7 ng/mL in data set [8] (human, serum, oral, 100 mg/day); 8.2 ng/mL in data set [8] (human, serum, oral, 200 mg/day); 74.5 ng/mL in data set [8] (human, serum, oral, 250 mg/day); 55.2 ng/mL in data set [8] (human, serum, oral, 300 mg/day); 77.1 ng/mL in data set [8] (human, serum, oral, 400 mg/day). The highest concentration (Cmax) in data set [8] (human, serum, oral, 450 mg/day) amounted to 148 ng/mL; in data set [8] (human, serum, oral, 550 mg/day), 234 ng/mL; in data set [8] (human, serum, oral, 600 mg/day), 71.8 ng/mL; in data set [8] (human, serum, oral, 800 mg/day), 95.2 ng/mL.
As for `C[C@@H](Nc1ncnc2[nH]c(-c3ccc(CN4CCNCC4)cc3)cc12)c1ccccc1` [AQM674], the Serum concentration in data set [5] (Patient 1) is 20.6 ng/mL; in data set [5] (Patient 2) it was 22.8 ng/mL; in data set [5] (Patient 3), 31.3 ng/mL; in data set [5] (Patient 4), 22.8 ng/mL. In addition, the Tumor concentration in data set [5] (Patient 1) is recorded as 196.7 ng/mL; in data set [5] (Patient 2) it was 411.2 ng/mL; in data set [5] (Patient 3), 299.5 ng/mL; in data set [5] (Patient 4) it was 93.9 ng/mL. The “exposure on day 15 relative to day 1” value in data set [6] was ~3 fold. Further, the “time of maximum serum concentration after administration, on average” value in data set [6] was determined as 4.6 h. Besides, the “fold range in exposure over an 11-fold range in doses (50–550 mg)” value in data set [8] (Group A) worked out at 20 fold. Besides, in data set [8] (Group B (EIACD) vs Group A), the “effect of EIACD on overall exposure / concentrations” value is “reduced”. Moreover, in data set [8] (human, in vivo), the “accumulation after daily (q 24 h) administration versus a single dose” value is 2-8 times. The “PK steady state reached” value in data set [8] (once-daily dosing) is ≤ 15 days.
